# Values quoted from earlier work as cited in patent publication US6472370B1, “Anticonvulsant derivatives useful in treating post traumatic stress disorder” (Ortho-McNeil Pharmaceutical, Inc., priority 1998, dated 2002).
# Where two headings read alike, the source gives them in different places.
# Legend:
# [1] = system: simple and complex partial seizures and secondarily generalized seizures; conditions: clinical trials of human epilepsy; adjunctive therapy or monotherapy
# kindling seizures = conditions: animal (rodent) model of kindling
# [2] = system: seizures in several rodent models of epilepsy
smiles,measurement,setting,value
"CC1(C)O[C@@H]2[C@@H](CO[C@@]3(COS(N)(=O)=O)OC(C)(C)O[C@@H]23)O1 [topiramate, 2,3:4,5-bis-O-(1-methylethylidene)-β-D-fructopyranose sulfamate]",efficacy in treating simple and complex partial seizures and secondarily generalized seizures,[1],effective
same,block of seizures in kindled epilepsy / kindling seizures,kindling seizures,effectively block seizures
same,block of seizures in kindled epilepsy / kindling seizures,kindling seizures; listed as Topiramate,effective
same,block of seizures,[2],effectively block seizures
